Experimental data: patent US6214811A, “Acyclovir diester derivatives” (Drug Innovation & Design, Inc., priority 2000, dated 2001)

How the values were obtained:
[1] = tested on: pig liver esterase; experiment: Incubation with pig liver esterase in phosphate buffered D2O, NMR; type: in vitro ADME
Description: This assay is described in Glazier, WO 91/19721 entitled "Phosphorus Prodrugs" and can be used to determine suitable hydroxyl or amino protecting groups which can be cleaved in vivo. The entire teachings of […] are incorporated herein by reference. It is to be understood that there are other in vitro assays known to one of ordinary skill in the art employing esterases, amidases or enzymes capable of cleaving carbonate, carbamate, ester and amide groups which can also be used to determine suitable protecting groups.

[2] = tested on: dermal herpes simplex virus-1 (HSV-1) infection; experiment: Dermal HSV-1 infection in guinea pigs, topical treatment (lesion number, lesion area, skin virus titer); type: in vivo, guinea pig (Female Hartley outbred); conditions: for effectiveness in reducing dermal HSV-1 virus infection compared with acyclovir and phosphotriester prodrugs (in words): dermal HSV-1 infection; for lesion number, lesion area and lesion virus titer (summary in words): guinea pigs with dermal HSV-1 infections, compared to vehicle/placebo
Protocol: The formulation for Prodrug 1 contained 5% EL-620 EMULPHOR (polyoxyethylated castor oil) (Rhone Poluenc), 5% CARBOPOL (Carboxypolymethylene, sodium salt) (B. F. Goodrich), 10% ethanol and 2% by weight Prodrug 1. The balance of the formulation consisted of water.
EL-620 EMULPHOR and water were mixed and ultrasonicated to give a clear emulsion, to which the ethanol was added. The prodrug was then added, and the mixture was ultrasonicated. The sodium carbopol was then added to the emulsion and mixed until to homogeneity.
The placebo was prepared identically to the pharmaceutical compositions except that the prodrugs were omitted.
The pharmaceutical compositions were stored at room temperature.
Female Hartley outbred guinea pigs, 400 to 450 grams, were obtained from Charles River Breeding Labs, Wilmington, Mass. Animals were anesthetized with 25 mg/kg ketamine and 5 mg/kg xylazine SQ. Hair on the dorsum from the shoulders to the rump was removed with electric clippers followed by two 5-10 minute applications of a chemical depilatory. A grid of four areas was demarcated with a pen on both sides of the spine at levels corresponding to mid back and rump.
Undiluted HSV-1 virus stock (0.035 ml) was applied to each different area and introduced through the skin at well-spaced sites at ten activations of a six-pronged spring-loaded vaccination instrument (Sterneedle, Pan Ray Division, Ormont Drug, Englewood, N.J.). The day of inoculation is Day 0. Approximately 250 mg of drug or placebo was applied to the areas according to the dosing regimen on Days 1, 2 and 3. Eight guinea pigs were used during the experiments allowing eight comparisons between each drug and its placebo.
On Day 4 regrown hair on the dorsum of the guinea pigs was removed with one 3-4 minute application of a chemical depilatory. HSV lesions were counted and Polaroid pictures of the animals' backs were taken. The animals were sacrificed using CO2 gas and the full thickness skin of the back was removed by dissection. The square of the skin from each of the four treatment areas was placed into 15 mls of tissue culture medium with 2% FES in an ice bath. The samples were then homogenized in a stomacher Lab Blender 80 (Tekmar Co.). Debris was pelleted by centrifugation and the supernatants collected and frozen at -70° C. until assay for infectivity by plaque formation in VERO cells.
The mean and standard deviation for number of lesions, total lesion area and lesion virus titer were computed. Paired data (drug/vehicle) were evaluated by the Wilcoxon signed-rank test using percent differences between log10 derivatives of mean lesions severity at drug-treated sites compared to the Vehicle-treated sites.
Prodrug 2 was formulated as described in Example 1. One Hartley guinea pig was inoculated with HSV-1 as described in Example 1. The guinea pig was treated with Prodrug 2 according to the protocol used in Example 1 for Prodrug 1.

[3] = tested on: herpes simplex labialis; conditions: cited from earlier work
[4] = guinea pigs, topical, 2% by weight Prodrug 1 formulation, Days 1, 2 and 3, vs placebo (p<0.01)

COC(=O)CC(OP(=O)(O)OCCOCn1cnc2c(=O)[nH]c(N)nc21)c1ccc(OC(=O)C(C)(C)C)cc1 (centres unmarked) [Prodrug 1, Sodium 2-((9-Guanylyl)methyl)oxy)ethyl 1-(4-((2,2-dimethylpropionyl)oxy)-phenyl)-2-((methoxy)carbonyl)ethyl phosphate]
degradation by esterase, products by NMR [1]: degraded to acyclovir monophosphate and p-hydroxycinnamic
effectiveness in reducing dermal HSV-1 virus infection compared with acyclovir and phosphotriester prodrugs (in words) [2]: more Effective in Reducing Dermal HSV-1 Virus Infection than Acyclovir
lesion number, lesion area and lesion virus titer (summary in words) [2]: dramatic reduction in lesion number, in lesion area and in lesion virus titer
reduction in lesion area [2, 4]: 79%
reduction in lesion number [2, 4]: 72%
reduction in skin viral titers [2, 4]: 93%

COC(=O)CC(OP(=O)(O)OCCOCn1cnc2c(=O)[nH]c(N)nc21)c1ccc(OC(C)=O)cc1 (centres unmarked) [Prodrug 2, sodium 2-((9-guanylyl)methyl)oxy)ethyl-1-(4-acetoxyphenyl)-2-((methoxy)carbonyl)ethyl phosphate]
effectiveness in reducing dermal HSV-1 virus infection compared with acyclovir and phosphotriester prodrugs (in words) [2]: more Effective in Reducing Dermal HSV-1 Virus Infection than Acyclovir
lesion number, lesion area and lesion virus titer (summary in words) [2]: dramatic reduction in lesion number, in lesion area and in lesion virus titer
reduction in lesion number, lesion area and skin viral titers (in words) ([2]; one Hartley guinea pig, formulated as in Example 1, compared with Prodrug 1 in Example 1): comparable reduction in lesion number, lesion area and in skin viral titers

Nc1nc2c(ncn2COCCO)c(=O)[nH]1 [acyclovir]
effectiveness of oral acyclovir in cold sores ([3]; oral): only partially effective
response of cold sores to topical acyclovir ([3]; topical): do not respond
